The NIST ThermoML archive (doi:10.1016/j.jct.2005.10.009)

Assay: molar heat capacity at constant pressure; xn = mol fraction of the nth substance listed
Conditions: 101 kPa, Liquid, Small sample (50 mg) DSC

CCCCCCCCCCO [decan-1-ol] + CCCCCCC
molar heat capacity at constant pressure [J/K/mol]
Conditions	x1 = 0.0506	x1 = 0.0979	x1 = 0.1541	x1 = 0.2543	x1 = 0.3757	x1 = 0.5378	x1 = 0.7551	x1 = 0.9008	x1 = 1
290.91 K	235.98	243.78	252.15	266.07	282.7	304.21	333.09	351.55	364.49
291.15 K	236.08	243.9	252.2	266.16	282.63	304.17	333.35	351.9	364.8
292.15 K	236.53	244.42	252.79	266.99	283.4	305.3	334.38	353.11	366.05
293.15 K	237.09	245.13	253.5	267.69	284.09	306.17	335.4	354.31	367.19
294.15 K	237.67	245.8	254.28	268.44	284.97	307.04	336.39	355.23	368.25
295.15 K	238.27	246.44	255.06	269.19	285.92	308.08	337.47	356.26	369.35
296.15 K	238.89	247.13	255.82	269.75	286.81	308.89	338.44	357.26	370.35
297.15 K	239.51	247.87	256.61	270.59	287.73	309.97	339.61	358.4	371.6
298.15 K	239.86	248.38	257.16	271.36	288.4	310.74	340.46	359.54	372.77
299.15 K	240.3	248.86	257.8	272.19	289.09	311.53	341.42	360.58	373.71
300.15 K	240.83	249.51	258.45	272.99	289.92	312.43	342.44	361.76	374.91
301.15 K	241.28	250.01	259.03	273.68	290.74	313.24	343.35	362.66	375.89
302.15 K	241.86	250.66	259.8	274.46	291.61	314.17	344.4	363.81	377.05
303.15 K	242.35	251.17	260.34	275.23	292.47	315.15	345.4	364.87	378.2
304.15 K	242.86	251.87	261.18	276.03	293.43	316.13	346.52	366.04	379.47
305.15 K	243.39	252.56	261.84	276.84	294.24	317.05	347.59	367.12	380.58
306.15 K	243.87	253.07	262.53	277.6	295.15	318	348.57	368.24	381.75
307.15 K	244.14	253.41	262.92	278.04	295.57	318.55	349.26	368.97	382.43
308.15 K	245.18	254.65	264.24	279.52	297.18	320.29	351.13	370.98	384.6
309.15 K	245.41	255.04	264.68	280.05	297.76	320.96	351.89	371.76	385.42
310.15 K	245.95	255.58	265.32	280.82	298.67	321.92	352.97	372.9	386.61
311.15 K	246.43	256.31	266.13	281.69	299.62	323.01	354.17	374.19	387.89
312.15 K	246.88	256.87	266.75	282.41	300.41	323.89	355.15	375.27	389.03
313.15 K	247.31	257.46	267.42	283.25	301.36	324.89	356.22	376.4	390.28
314.15 K	247.77	258.06	268.13	284.06	302.25	325.9	357.35	377.6	391.58
315.15 K	248.34	258.68	268.86	284.88	303.16	326.94	358.54	378.81	392.8
316.15 K	248.75	259.2	269.56	285.67	304.03	327.84	359.56	379.98	394.11
317.15 K	249.2	259.91	270.2	286.49	304.91	328.86	360.67	381.22	395.3
318.15 K	249.65	260.46	270.95	287.25	305.87	329.91	361.79	382.38	396.66
318.39 K	249.73	260.52	271.04	287.43	306.02	330.09	362.01	382.62	396.93
